The assay concerns HeLa cell. Nature of the assay: Cell magnetorotation of a single HeLa cell: rotation period and morphology under toxic agents. It is filed as cell-based. The text has this:
The Y axis is the normalized period, and the X axis is time in seconds. Lines show trend between connected points. For each graph, in the pictures above it, the bottom pictures show snapshots of the rotated cell at each indicated time, while the schematic pictures on top of it show the corresponding cell shapes (fixated cell not shown). Dark discs represent the cell cytoplasm and membrane, while grey spots show the vesicles formed at the surface, if any.
In this example, cancer cells loaded with nanoparticles were magnetically separated and resuspended in different media, such as culture medium (DMEM), DMEM with 5% Ethanol, or DMEM with 75% deionized water. Each medium was used to verify different aspects of this method: DMEM was used as a control, ethanol was used as a cytotoxic agent, and, to promote stress through cell swelling, we used a large proportion of DI water, reversing the ionic balance between the inside and outside of the cell. Note that a large concentration of salt in solution has the opposite effect on the cell, namely shrinking it. The cells in suspension were then pipetted onto a LIVE CELL ARRAY plate (NUNC), where the array has 100 μm wide wells, which provide adequate compartments for single cells to rotate and be analyzed. Optical scattering signals were recorded and the changes in the rotation period were measured for the different media (FIG. 2).
Cell swelling generally occurs because of the osmotic pressure created either by an ionic imbalance, as mentioned earlier, or by a lack of nutrients. Either way, the cell expands to cope with the imbalance of the chemicals it needs for maintaining its metabolism. To reach ionic disparity, we used DI water (FIG. 2B).

Structures are written as SMILES.

`N.N.[Cl][Pt][Cl]` [Cisplatin]: where the note is “Cisplatin 100 ug/ml (red line on FIG. 2D)”, the “rise of cell rotation period” value was 550%. The “time for blebs to appear at the surface of the cell” value (Cisplatin at 100 ug/ml) is “several hours”. Besides, the cell death entry (single HeLa cell in DMEM with 100 ug/ml Cisplatin) is given as “cell death is provoked”.

Take `CCO` [ethanol]: where the note is “5% ethanol in DMEM”, the “time for blebs to appear at the surface of the cell” value is recorded as “around 30 minutes”. For the setting “5% ethanol in DMEM (FIG. 2C)”, the “rise of cell rotation period” value was 550%. Under “single HeLa cell in DMEM with 5% ethanol”, the cell death result is “cell death is provoked”.

Values taken from US9816993B2, “Magnetically induced microspinning for super-detection and super-characterization of biomarkers and live cells” (THE REGENTS OF THE UNIVERSITY OF MICHIGAN, priority 2011, dated 2017).
